This note sets out measurements from patent publication US12643895B2, “Heteroaryl-substituted pyrazolo-pyridine protein kinase inhibitors for promoting liver regeneration or reducing or preventing hepatocyte death” (HepaRegeniX GmbH, priority 2019, dated 2026).

Bounds are passed on as bounds.

Holding throughout (format): biochemical
One assay has as its target T1, MKK4 (Homo sapiens, UniProt P45985).
T1 construct: purchased ProQinase GmbH, Freiburg, Germany (assay service)
T1 sequence (P45985 1-399): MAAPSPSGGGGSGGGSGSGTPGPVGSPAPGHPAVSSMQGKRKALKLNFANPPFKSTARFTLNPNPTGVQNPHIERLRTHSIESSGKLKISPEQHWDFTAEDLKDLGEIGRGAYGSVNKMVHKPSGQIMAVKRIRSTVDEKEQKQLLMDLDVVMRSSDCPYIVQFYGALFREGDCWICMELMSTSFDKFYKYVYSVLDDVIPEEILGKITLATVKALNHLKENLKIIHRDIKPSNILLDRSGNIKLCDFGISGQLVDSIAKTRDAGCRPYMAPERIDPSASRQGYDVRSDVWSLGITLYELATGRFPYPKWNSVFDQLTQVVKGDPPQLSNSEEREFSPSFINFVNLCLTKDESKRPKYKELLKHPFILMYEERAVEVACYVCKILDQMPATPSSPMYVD
In words: 33PanQinase radiometric kinase assay, MKK4. Particulars: category based on IC50-values; ATP at apparent Km; read-out: Potency MKK4. On the procedure:
(§1) The kinase activities of the compounds of the invention were measured using the 33PanQinase® Assay Service provided by ProQinase GmbH, Freiburg, Germany. Details of the assay conditions are disclosed on the website of ProQinase (https://www.proqinase.com/products-services-biochemical-assay-services/kinase-assays). In brief, all kinase assays were performed in 96-well FlashPlates™ from PerkinElmer (Boston, MA, USA) in a 50 μl reaction volume. The reaction cocktail was pipetted in four steps in the following order: • 20 μl of assay buffer (standard buffer) • 5 μl of ATP solution (in H2O) • 5 μl of test compound (in 10% DMSO) • 20 μl enzyme/substrate mix
(§2) The reaction cocktails were incubated at 30° C. for 60 minutes. The reaction is stopped with 50 μl of 2% (v/v) H3PO4, plates were aspirated and washed two times with 200 μl 0.9% (w/v) NaCl. Incorporation of ^33Pi was determined with a microplate scintillation counter (Microbeta, Wallac).
(§3) All assays were performed with a BeckmanCoulter/SAGIAN™ Core System.
(§4) In case of single concentration assays, the potency of the test compound is expressed as % residual activity. […] The fitting method used was a least-squares fit.

The target in the next assay is T2, MKK7 (Homo sapiens, UniProt O14733).
T2 construct: purchased ProQinase GmbH, Freiburg, Germany (assay service)
T2 sequence (O14733 1-419): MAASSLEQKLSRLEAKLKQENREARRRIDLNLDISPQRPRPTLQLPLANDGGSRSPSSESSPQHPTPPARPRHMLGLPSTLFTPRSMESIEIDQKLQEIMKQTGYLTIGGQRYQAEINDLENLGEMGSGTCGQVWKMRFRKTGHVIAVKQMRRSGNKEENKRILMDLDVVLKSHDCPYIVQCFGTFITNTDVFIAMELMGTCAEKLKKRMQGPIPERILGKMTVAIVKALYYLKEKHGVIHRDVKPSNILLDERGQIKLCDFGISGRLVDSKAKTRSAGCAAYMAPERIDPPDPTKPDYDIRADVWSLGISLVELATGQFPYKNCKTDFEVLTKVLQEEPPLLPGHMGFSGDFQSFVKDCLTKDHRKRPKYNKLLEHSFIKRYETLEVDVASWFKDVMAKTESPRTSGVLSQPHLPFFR
Briefly: 33PanQinase radiometric kinase assay, MKK7 (off-target). Particulars: ratio IC50(off-target)/IC50(MKK4). On the procedure:
as §1, §2, §3, §4
(§5) Selectivity of test compounds against BRaf, JNK1 and MKK7, altogether denominated as off-targets was calculated by the ratio of IC50 (off-target)/IC50 (MKK4) and categorized as follows: […]

The target in another assay is T3, BRaf (Homo sapiens, UniProt P15056).
T3 construct: purchased ProQinase GmbH, Freiburg, Germany (assay service)
In words: 33PanQinase radiometric kinase assay, BRaf (off-target). Particulars: ratio IC50(off-target)/IC50(MKK4). On the procedure:
as §1, §2, §3, §4, §5

A further assay deals with T4, JNK1 (Homo sapiens, UniProt P45983).
T4 construct: purchased ProQinase GmbH, Freiburg, Germany (assay service)
In words: 33PanQinase radiometric kinase assay, JNK1 (off-target). Particulars: ratio IC50(off-target)/IC50(MKK4). On the procedure: as §1, §2, §3, §4, §5

T4 sequence (P45983 whole entry): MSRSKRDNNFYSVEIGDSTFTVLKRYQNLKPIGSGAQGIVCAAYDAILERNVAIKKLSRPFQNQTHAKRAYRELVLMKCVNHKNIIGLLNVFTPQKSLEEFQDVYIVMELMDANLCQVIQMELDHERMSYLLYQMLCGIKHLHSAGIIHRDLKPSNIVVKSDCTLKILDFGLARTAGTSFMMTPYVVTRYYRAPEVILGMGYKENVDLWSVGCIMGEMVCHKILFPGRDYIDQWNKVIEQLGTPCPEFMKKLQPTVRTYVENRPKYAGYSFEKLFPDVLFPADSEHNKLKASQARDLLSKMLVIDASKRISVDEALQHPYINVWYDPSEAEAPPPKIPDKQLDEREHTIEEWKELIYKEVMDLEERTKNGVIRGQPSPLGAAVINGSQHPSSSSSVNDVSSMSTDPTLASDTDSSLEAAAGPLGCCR
T3 sequence (P15056 whole entry): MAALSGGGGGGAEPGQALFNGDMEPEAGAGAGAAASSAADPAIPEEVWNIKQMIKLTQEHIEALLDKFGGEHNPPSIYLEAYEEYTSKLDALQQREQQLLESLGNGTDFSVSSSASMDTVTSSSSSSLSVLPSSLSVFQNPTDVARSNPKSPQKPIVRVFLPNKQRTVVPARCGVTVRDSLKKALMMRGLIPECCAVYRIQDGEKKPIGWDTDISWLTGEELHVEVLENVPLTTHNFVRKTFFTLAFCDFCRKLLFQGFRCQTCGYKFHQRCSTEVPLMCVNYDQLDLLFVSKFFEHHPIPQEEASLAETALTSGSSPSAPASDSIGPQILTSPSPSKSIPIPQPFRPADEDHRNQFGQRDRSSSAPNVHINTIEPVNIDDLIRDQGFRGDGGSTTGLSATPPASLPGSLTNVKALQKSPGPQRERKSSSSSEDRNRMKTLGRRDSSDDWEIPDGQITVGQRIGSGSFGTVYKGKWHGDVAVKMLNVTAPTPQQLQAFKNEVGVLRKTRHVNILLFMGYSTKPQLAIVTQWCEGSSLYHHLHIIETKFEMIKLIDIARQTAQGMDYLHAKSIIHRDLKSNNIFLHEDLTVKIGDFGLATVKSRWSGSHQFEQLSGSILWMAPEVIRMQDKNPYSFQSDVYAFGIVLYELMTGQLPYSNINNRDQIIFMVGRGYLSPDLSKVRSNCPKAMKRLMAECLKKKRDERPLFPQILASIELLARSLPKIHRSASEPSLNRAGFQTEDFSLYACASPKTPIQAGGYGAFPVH

For the compound `O=C(c1c(F)ccc(NS(=O)(=O)Cc2ccccc2)c1F)c1n[nH]c2ncc(-c3cnc(C4CC4)nc3)cc12` [Example 1, N-(3-(5-(2-cyclopropylpyrimidin-5-yl)-1H-pyrazolo[3,4-b]pyridine-3-carbonyl)-2,4-difluorophenyl)-1-phenylmethanesulfonamide], the IC50 on MKK4 lay within 100 to 1000 nM. Besides, the “Selectivity MKK7” value on MKK7 is recorded as “+++ (IC50(off-target)/IC50(MKK4) > 100)”. On BRaf, the “Selectivity Braf” value is given as “+ (10 ≥ IC50(off-target)/IC50(MKK4) > 3)”. Besides, the “Selectivity JNK1” value on JNK1 was “◯”.
For `CS(=O)(=O)Nc1c(F)ccc(C(=O)c2n[nH]c3ncc(-c4ccc(Cl)cc4)cc23)c1F` [Example 2, N-(3-(5-(4-chlorophenyl)-1H-pyrazolo[3,4-b]pyridine-3-carbonyl)-2,6-difluorophenyl)methanesulfonamide] the same measures were less than 100 nM, “+++ (IC50(off-target)/IC50(MKK4) > 100)”, “+++ (IC50(off-target)/IC50(MKK4) > 100)” and “+++ (IC50(off-target)/IC50(MKK4) > 100)”.
The corresponding values for `CCS(=O)(=O)Nc1c(F)ccc(C(=O)c2n[nH]c3ncc(-c4ccc(Cl)cc4)cc23)c1F` [Example 3, N-(3-(5-(4-chlorophenyl)-1H-pyrazolo[3,4-b]pyridine-3-carbonyl)-2,6-difluorophenyl)ethanesulfonamide] are 100 to 1000 nM, “+++ (IC50(off-target)/IC50(MKK4) > 100)”, “+++ (IC50(off-target)/IC50(MKK4) > 100)” and “++ (100 ≥ IC50(off-target)/IC50(MKK4) > 10)”.
The corresponding values for `CCOC(=O)c1ccc(-c2cnc3[nH]nc(C(=O)c4ccc(F)c(NS(C)(=O)=O)c4F)c3c2)cc1` [Example 4, Ethyl 4-(3-(2,4-difluoro-3-(methylsulfonamido)benzoyl)-1H-pyrazolo[3,4-b]pyridin-5-yl)benzoate] are 100 to 1000 nM, “+++ (IC50(off-target)/IC50(MKK4) > 100)”, “+++ (IC50(off-target)/IC50(MKK4) > 100)” and “++ (100 ≥ IC50(off-target)/IC50(MKK4) > 10)”.
Regarding `COC(=O)c1ccc(-c2cnc3[nH]nc(C(=O)c4ccc(F)c(NS(C)(=O)=O)c4F)c3c2)cn1` [Example 5, Methyl 5-(3-(2,4-difluoro-3-(methylsulfonamido)benzoyl)-1H-pyrazolo[3,4-b]pyridin-5-yl)picolinate], the IC50 on MKK4 lay in the range of 1000 to 10000 nM. Moreover, the “Selectivity MKK7” value on MKK7 is on record as “++ (100 ≥ IC50(off-target)/IC50(MKK4) > 10)”. Further, at BRaf, the “Selectivity Braf” value is “+++ (IC50(off-target)/IC50(MKK4) > 100)”. The “Selectivity JNK1” value at JNK1 is listed as “+ (10 ≥ IC50(off-target)/IC50(MKK4) > 3)”.
For `CCCS(=O)(=O)Nc1c(F)ccc(C(=O)c2n[nH]c3ncc(-c4cncnc4)cc23)c1F` [Example 6, N-(2,6-difluoro-3-(5-(pyrimidin-5-yl)-1H-pyrazolo[3,4-b]pyridine-3-carbonyl)phenyl)propane-1-sulfonamide] the same measures were 100 to 1000 nM, “+++ (IC50(off-target)/IC50(MKK4) > 100)”, “+++ (IC50(off-target)/IC50(MKK4) > 100)” and “+++ (IC50(off-target)/IC50(MKK4) > 100)”.
Turning to `CCCS(=O)(=O)Nc1c(F)ccc(C(=O)c2n[nH]c3ncc(-c4cnc(C)nc4)cc23)c1F` [Example 7, N-(2,6-difluoro-3-(5-(2-methylpyrimidin-5-yl)-1H-pyrazolo[3,4-b]pyridine-3-carbonyl)phenyl)propane-1-sulfonamide], the IC50 at MKK4 is less than 100 nM. In addition, on MKK7, the “Selectivity MKK7” value is listed as “+++ (IC50(off-target)/IC50(MKK4) > 100)”. In addition, the “Selectivity Braf” value on BRaf is “+++ (IC50(off-target)/IC50(MKK4) > 100)”. In addition, the “Selectivity JNK1” value on JNK1 is on record as “+++ (IC50(off-target)/IC50(MKK4) > 100)”.
`CCCS(=O)(=O)Nc1c(F)ccc(C(=O)c2n[nH]c3ncc(-c4cnc(C(=O)O)nc4)cc23)c1F` [Example 8, 5-(3-(2,4-difluoro-3-(propylsulfonamido)benzoyl)-1H-pyrazolo[3,4-b]pyridin-5-yl)pyrimidine-2-carboxylic acid]: the IC50 on MKK4 was less than 100 nM. At MKK7, the “Selectivity MKK7” value is recorded as “++ (100 ≥ IC50(off-target)/IC50(MKK4) > 10)”. Moreover, the “Selectivity Braf” value at BRaf is on record as “+++ (IC50(off-target)/IC50(MKK4) > 100)”. Further, on JNK1, the “Selectivity JNK1” value is on record as “+++ (IC50(off-target)/IC50(MKK4) > 100)”.
As for `CCCS(=O)(=O)Nc1c(F)ccc(C(=O)c2n[nH]c3ncc(-c4cnc(C#N)nc4)cc23)c1F` [Example 9, N-(3-(5-(2-cyanopyrimidin-5-yl)-1H-pyrazolo[3,4-b]pyridine-3-carbonyl)-2,6-difluorophenyl)propane-1-sulfonamide], the IC50 at MKK4 lay within 100 to 1000 nM. The “Selectivity MKK7” value at MKK7 is “++ (100 ≥ IC50(off-target)/IC50(MKK4) > 10)”. Moreover, the “Selectivity Braf” value at BRaf is recorded as “++ (100 ≥ IC50(off-target)/IC50(MKK4) > 10)”. At JNK1, the “Selectivity JNK1” value is “++ (100 ≥ IC50(off-target)/IC50(MKK4) > 10)”.
As to `CCCS(=O)(=O)Nc1c(F)ccc(C(=O)c2n[nH]c3ncc(-c4cnc(-c5nnn[nH]5)nc4)cc23)c1F` [Example 10, N-(3-(5-(2-(1H-tetrazol-5-yl)pyrimidin-5-yl)-1H-pyrazolo[3,4-b]pyridine-3-carbonyl)-2,6-difluorophenyl)propane-1-sulfonamide], on MKK4, the IC50 is less than 100 nM. Moreover, the “Selectivity MKK7” value on MKK7 is “++ (100 ≥ IC50(off-target)/IC50(MKK4) > 10)”. The “Selectivity Braf” value at BRaf is listed as “+++ (IC50(off-target)/IC50(MKK4) > 100)”. Further, the “Selectivity JNK1” value at JNK1 is given as “+++ (IC50(off-target)/IC50(MKK4) > 100)”.
As for `CCCS(=O)(=O)Nc1c(F)ccc(C(=O)c2n[nH]c3ncc(-c4cnc(Cl)nc4)cc23)c1F` [Example 12, N-(3-(5-(2-chloropyrimidin-5-yl)-1H-pyrazolo[3,4-b]pyridine-3-carbonyl)-2,6-difluorophenyl)propane-1-sulfonamide], the IC50 at MKK4 is 100 to 1000 nM. The “Selectivity MKK7” value at MKK7 is “+++ (IC50(off-target)/IC50(MKK4) > 100)”. Further, the “Selectivity Braf” value on BRaf is “+++ (IC50(off-target)/IC50(MKK4) > 100)”. Moreover, the “Selectivity JNK1” value on JNK1 was “+++ (IC50(off-target)/IC50(MKK4) > 100)”.
For `CCCS(=O)(=O)Nc1c(F)ccc(C(=O)c2n[nH]c3ncc(-c4cnc(O)nc4)cc23)c1F` [Example 16, N-(2,6-difluoro-3-(5-(2-hydroxypyrimidin-5-yl)-1H-pyrazolo[3,4-b]pyridine-3-carbonyl)phenyl)propane-1-sulfonamide], the IC50 at MKK4 is less than 100 nM. Moreover, the “Selectivity MKK7” value at MKK7 is recorded as “+++ (IC50(off-target)/IC50(MKK4) > 100)”. On BRaf, the “Selectivity Braf” value is on record as “+++ (IC50(off-target)/IC50(MKK4) > 100)”. The “Selectivity JNK1” value on JNK1 is “+++ (IC50(off-target)/IC50(MKK4) > 100)”.
With `CCCS(=O)(=O)Nc1c(F)ccc(C(=O)c2n[nH]c3ncc(-c4ccncc4Cl)cc23)c1F` [Example 17, N-(3-(5-(3-chloropyridin-4-yl)-1H-pyrazolo[3,4-b]pyridine-3-carbonyl)-2,6-difluorophenyl)propane-1-sulfonamide], the IC50 on MKK4 is less than 100 nM. Further, the “Selectivity MKK7” value at MKK7 is given as “+++ (IC50(off-target)/IC50(MKK4) > 100)”. Also, the “Selectivity Braf” value at BRaf is on record as “+++ (IC50(off-target)/IC50(MKK4) > 100)”. In addition, the “Selectivity JNK1” value on JNK1 is “+++ (IC50(off-target)/IC50(MKK4) > 100)”.
As for `CCCS(=O)(=O)Nc1c(F)ccc(C(=O)c2n[nH]c3ncc(-c4ccncc4C)cc23)c1F` [Example 18, N-(2,6-difluoro-3-(5-(3-methylpyridin-4-yl)-1H-pyrazolo[3,4-b]pyridine-3-carbonyl)phenyl)propane-1-sulfonamide], the IC50 on MKK4 was less than 100 nM. Besides, the “Selectivity MKK7” value at MKK7 is on record as “+++ (IC50(off-target)/IC50(MKK4) > 100)”. Also, the “Selectivity Braf” value on BRaf is recorded as “+++ (IC50(off-target)/IC50(MKK4) > 100)”. Moreover, on JNK1, the “Selectivity JNK1” value is recorded as “+++ (IC50(off-target)/IC50(MKK4) > 100)”.
